Results taken from patent US10335448B2, “Compositions and methods for inhibiting fibrosis” (The UAB Research Foundation, priority 2014, dated 2019).
Entries after “also recorded” stand apart in the source; their conditions may differ. Where a SMILES comes first, the peptide text is derived from it.

How the values were obtained:
[1] = system: bleomycin-induced lung fibrosis; test: Bleomycin-induced pulmonary fibrosis in mice, peptide given intratracheally; conditions: for lung fibrosis measured as lung hydroxyproline, second trial: 250 μg IT daily for two weeks starting day 7, n=6 (FIG. 6); for lung fibrosis on histology (H&E), second trial: 250 μg per day IT for 2 weeks starting day 7 (FIG. 5); for pulmonary fibrosis, summary statement: intra-tracheal administration to bleomycin-exposed mice
[2] = system: CXC receptors on neutrophils; conditions: Haddox et al. 1999; cited from earlier work
[3] = system: IMR-90 fibroblasts differentiated to myofibroblasts; test: Western blot of matrix and differentiation markers in IMR-90 myofibroblasts (TGF-β plus Ac-PGP); format: cell-based, human
Procedure: IMR-90 fibroblasts were differentiated to myofibroblasts with TGF-β 2.5 ng/ml. Ac-PGP at differing concentrations (0, 1, 3, 10 and 30 μg/ml) was added at the same time. Whole cell lysates were obtained after 48 h and probed by WB for the indicated proteins.
(§1) The simplest explanation for this is a direct effect of Ac-PGP on the myofibroblast, altering its phenotype to stop or perhaps reverse fibrosis. […] Human lung fibroblasts were co-incubated with TGF-β and Ac-PGP and the effects on matrix generation and markers of MF activation and differentiation were observed.

IMR-90 fibroblasts = test: Scratch wound migration of IMR-90 fibroblasts and TGF-β1-differentiated myofibroblasts; format: cell-based, human; conditions: 100 μM Ac-PGP, 48 h
Procedure: FIGS. 11A-H show IMR-90 fibroblasts under different conditions. IMR-90 fibroblasts were grown to 80-90% confluence (A, C) and differentiated to myofibroblasts with TGF-β1 (E, G). A scratch was made and 100 μM Ac-PGP was added to some cells (FIGS. 11C, G).
as §1

rhACE = rhACE (Homo sapiens, UniProt P12821); conditions: not told
rhACE, sequence (P12821 30-1306): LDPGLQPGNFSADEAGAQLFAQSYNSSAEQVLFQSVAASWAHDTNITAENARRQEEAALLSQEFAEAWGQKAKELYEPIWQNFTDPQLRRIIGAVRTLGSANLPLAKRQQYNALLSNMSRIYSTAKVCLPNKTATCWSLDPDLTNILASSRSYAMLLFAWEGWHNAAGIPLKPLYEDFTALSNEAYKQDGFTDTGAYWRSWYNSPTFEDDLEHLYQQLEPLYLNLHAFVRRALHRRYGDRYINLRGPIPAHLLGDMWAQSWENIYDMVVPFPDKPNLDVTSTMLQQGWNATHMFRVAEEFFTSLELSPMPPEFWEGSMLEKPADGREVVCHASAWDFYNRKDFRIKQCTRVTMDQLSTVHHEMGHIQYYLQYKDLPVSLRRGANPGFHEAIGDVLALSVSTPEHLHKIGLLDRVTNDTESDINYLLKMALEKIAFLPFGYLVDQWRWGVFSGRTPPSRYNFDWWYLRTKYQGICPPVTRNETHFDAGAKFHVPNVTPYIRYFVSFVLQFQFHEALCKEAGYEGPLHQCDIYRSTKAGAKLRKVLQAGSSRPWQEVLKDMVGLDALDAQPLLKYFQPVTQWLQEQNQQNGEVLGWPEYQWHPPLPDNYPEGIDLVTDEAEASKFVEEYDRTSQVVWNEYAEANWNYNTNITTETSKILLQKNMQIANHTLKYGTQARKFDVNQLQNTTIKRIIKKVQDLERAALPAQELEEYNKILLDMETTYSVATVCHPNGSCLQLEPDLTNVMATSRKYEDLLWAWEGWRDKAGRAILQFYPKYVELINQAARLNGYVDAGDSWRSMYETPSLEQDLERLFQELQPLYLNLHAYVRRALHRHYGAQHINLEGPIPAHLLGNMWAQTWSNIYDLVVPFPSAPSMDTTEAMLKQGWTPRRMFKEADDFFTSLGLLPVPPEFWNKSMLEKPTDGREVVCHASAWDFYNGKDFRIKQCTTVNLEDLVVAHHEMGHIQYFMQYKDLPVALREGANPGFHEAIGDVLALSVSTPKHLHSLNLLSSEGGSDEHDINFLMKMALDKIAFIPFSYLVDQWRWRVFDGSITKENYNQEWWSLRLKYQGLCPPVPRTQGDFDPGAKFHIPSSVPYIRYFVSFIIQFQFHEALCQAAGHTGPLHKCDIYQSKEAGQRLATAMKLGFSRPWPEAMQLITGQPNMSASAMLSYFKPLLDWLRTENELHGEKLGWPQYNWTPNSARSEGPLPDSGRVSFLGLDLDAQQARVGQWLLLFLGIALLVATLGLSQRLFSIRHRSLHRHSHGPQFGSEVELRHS

[4] = system: bleomycin-induced lung fibrosis; conditions: background statement; cited from earlier work
[5] = TGF-β 2.5 ng/ml, Ac-PGP 1-30 μg/ml, 48 h, WB

SMILES | effectiveness on lung fibrosis measured as lung hydroxyproline ([1]; 125 μg per day IT, days 7 to 21, n=8 (FIG. 4)) | effectiveness at abrogating bleomycin-induced pulmonary fibrosis, second trial ([1]; 250 μg IT daily (FIG. 5)) | lung fibrosis measured as lung hydroxyproline, second trial [1] | lung fibrosis measured as lung hydroxyproline ([1]; 250 μg IT daily for two weeks starting day 7, n=8 (FIG. 4)) | lung fibrosis on histology (H&E), second trial [1] | lung fibrosis on lung histology (H&E) ([1]; Ac-PGP 125 μg IT per day, days 7 to 21 after bleomycin (FIG. 3)) | lung fibrosis on lung histology (H&E) ([1]; Ac-PGP 250 μg IT daily for two weeks starting day 7 after bleomycin, vs PBS-treated controls (FIG. 3)) | pulmonary fibrosis, summary statement [1] | potency relative to PGP [2] | myofibroblast differentiation and pro-fibrotic functions in vitro, summary statement [3] | SRC phosphorylation [3, 5] | collagen expression [3, 5] | fibronectin expression [3, 5] | α-SMA expression [3, 5] | dose giving the greatest inhibition of myofibroblasts ([3]; lesser effects at 30 and 10 μg/ml) | migration of un-differentiated fibroblasts across the wound (IMR-90 fibroblasts) | migration of myofibroblasts across the wound (IMR-90 fibroblasts; TGF-β1-differentiated) | Ac-PGP breakdown by rhACE (in words) (rhACE) | fibrosis in the bleomycin model [4]
CC(=O)N1CCC[C@H]1C(=O)NCC(=O)N1CCC[C@H]1C(=O)O [Ac-PGP, N-acetyl-proline-glycine-proline] (Ac-Pro-Gly-Pro-OH; C-terminus assumed) | about 50% | ~100% | almost completely abrogates | almost completely abrogates | abrogates | intermediate effect; also recorded: about half as effective | almost completely abrogates lung fibrosis; also recorded: almost completely abrogated | abrogated pulmonary fibrosis dose-dependently; also recorded: dramatic inhibition of fibrosis; also recorded: greatly reduces fibrosis | several times more potent | inhibited myofibroblast differentiation and pro-fibrotic functions | reduced | reduced | reduced | reduced | 3 µg/mL | did not affect; also recorded: but not fibroblasts | markedly reduced; also recorded: inhibited migration | degraded | 
C[C@H](CS)C(=O)N1CCC[C@H]1C(=O)O [Captopril, reference compound] |  |  |  |  |  |  |  |  |  |  |  |  |  |  |  |  |  |  | reduces fibrosis
O=C(NCC(=O)N1CCC[C@H]1C(=O)O)[C@@H]1CCCN1 [PGP, proline-glycine-proline] (H-Pro-Gly-Pro-OH; C-terminus assumed) |  |  | less effective |  | partially effective; also recorded: half as effective |  |  | partial effect |  |  |  |  |  |  |  |  |  |  | 
